From US8268848B2, “Cyclopropane compound” (Eisai R&D Management Co., Ltd., priority 2010, dated 2012)
Read-outs that look alike come from different tables or passages of the source.

Key:
mice (C57BL/6NCrlCrLj) = assay: Sleep experiment (EEG/EMG) in mice; assay type: in vivo; settings: 10 mg/kg
Procedure: As a method for measuring the influence of the present compound on sleep time, electroencephalogram (EEG) and electromyogram (EMG) measurements were carried out in mice (C57BL/6NCrlCrLj).
In order to measure brain waves and muscle signals, EEG and EMG electrode implantation was performed on individual mice, and the mice were then housed in a state in which they could freely move and habituate in individual recording cages for 1 week or longer. Thereafter, amplified EEG and EMG signals were digitally recorded.
Mice received either oral administration of vehicle or test compound in vehicle, after which sleep/wake behavior of mice was recorded for 3 hours.
For sleep analysis, automatic analysis software from Kissei Comtec Co., Ltd. was used to analyze EEG frequency and EMG activity signals in detail and to determine sleep and wake states. Thereafter, accumulated sleeping time over 3 hours was calculated.
The effect of the compound to increase sleep time was evaluated as the difference between sleeping time on the vehicle-administration day and the sleep time on the subsequent drug-administration day.
The minimum effective dose (MED; mg/kg) was obtained from accumulated sleep time of mice with three hours after the administration.

OX2 = target: T1, OX2 (Homo sapiens, UniProt O43614); assay: Measurement of orexin receptor-binding ability ([125I]-OX-A, cell membranes, OX2); parameters: expressed in transfected cells; host or cells: CHO cells (membrane preparation); settings: membranes of recombinant CHO cells expressing OX2, 0.2 nM [125I]-OX-A
T1 sequence (O43614 1-444): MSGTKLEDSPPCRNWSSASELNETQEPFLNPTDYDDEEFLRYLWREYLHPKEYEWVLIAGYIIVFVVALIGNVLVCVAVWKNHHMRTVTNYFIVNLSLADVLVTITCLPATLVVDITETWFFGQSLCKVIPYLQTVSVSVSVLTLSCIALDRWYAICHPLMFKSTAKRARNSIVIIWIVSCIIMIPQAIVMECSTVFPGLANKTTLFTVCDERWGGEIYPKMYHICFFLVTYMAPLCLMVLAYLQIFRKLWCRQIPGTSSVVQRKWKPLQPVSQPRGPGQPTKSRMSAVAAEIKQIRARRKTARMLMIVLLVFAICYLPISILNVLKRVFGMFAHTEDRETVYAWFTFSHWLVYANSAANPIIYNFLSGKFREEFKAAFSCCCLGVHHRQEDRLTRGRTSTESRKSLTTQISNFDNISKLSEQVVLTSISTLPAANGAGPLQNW

OX1 = target: T2, OX1 (Homo sapiens, UniProt O43613); assay: Measurement of orexin receptor-binding ability ([125I]-OX-A, cell membranes, OX1); parameters: expressed in transfected cells; host or cells: CHO cells (membrane preparation)
T2 sequence (O43613 1-425): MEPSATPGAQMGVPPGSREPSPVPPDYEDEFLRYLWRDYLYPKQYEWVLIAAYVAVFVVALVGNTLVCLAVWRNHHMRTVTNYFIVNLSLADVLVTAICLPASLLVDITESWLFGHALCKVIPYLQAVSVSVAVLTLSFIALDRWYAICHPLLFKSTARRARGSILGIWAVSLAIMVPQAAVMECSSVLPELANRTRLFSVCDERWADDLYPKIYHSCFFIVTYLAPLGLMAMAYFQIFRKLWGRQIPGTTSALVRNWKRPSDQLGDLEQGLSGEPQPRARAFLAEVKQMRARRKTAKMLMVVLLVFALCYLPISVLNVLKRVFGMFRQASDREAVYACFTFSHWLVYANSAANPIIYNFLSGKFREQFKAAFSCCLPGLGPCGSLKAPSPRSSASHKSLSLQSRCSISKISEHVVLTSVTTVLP

[1] = membranes of recombinant CHO cells expressing OX1, 0.2 nM [125I]-OX-A, read-out: OX1 (IC50)
[2] = mice, oral administration, difference to vehicle day, 3 hours

Row | SMILES | Sleep extended time 10 mg/kg (min/3 hrs) (mice (C57BL/6NCrlCrLj); po, 3 h) | IC50 (OX2; read-out: OX2 (IC50)) [nM] | IC50 (OX1; [1]) [µM] | Sleep extended time 10 mg/kg (min/3 hrs) (mice (C57BL/6NCrlCrLj); [2]) | IC50 (OX2; OX2 (IC50) nM) [nM] | IC50 (OX1) [µM]
1 | COCc1nc(C)ncc1OC[C@@]1(c2ccccc2)C[C@H]1C(=O)Nc1ccc(F)cn1 [Example 141, (1R,2S)-N-(5-fluoropyridin-2-yl)-2-{[(4-(methoxymethyl)-2-methylpyrimidin-5-yl)oxy]methyl}-2-phenylcyclopropanecarboxamide] | 28.7 | 1.3 | 0.009 |  |  | 
2 | Cc1ncc(OC[C@@]2(c3cc(F)cc(F)c3)C[C@H]2C(=O)Nc2ccc(F)cc2)c(C)n1 [Example 130, (1R,2S)-2-(3,5-difluorophenyl)-2-{[(2,4-dimethylpyrimidin-5-yl)oxy]methyl}-N-(4-fluorophenyl)cyclopropanecarboxamide] | 24.2 | 4 | 0.022 |  |  | 
3 | COCc1nc(C)ncc1OC[C@@]1(c2cccc(F)c2)C[C@H]1C(=O)Nc1ccc(F)cn1 [Example 191, (1R,2S)-2-(3-fluorophenyl)-N-(5-fluoropyridin-2-yl)-2-[(4-methoxymethyl-2-methylpyrimidin-5-yl)oxymethyl]cyclopropanecarboxamide] |  |  |  | 41.8 | 1 | 0.001
4 | Cc1ncc(OC[C@@]2(c3ccc(F)cc3)C[C@H]2C(=O)Nc2ccc(F)cc2)c(C)n1 [Example 105, (1R,2S)-N,2-bis(4-fluorophenyl)-2-{[(2,4-dimethylpyrimidin-5-yl)oxy]methyl}-N,2-bis(4-fluorophenyl)cyclopropanecarboxamide] |  |  |  | 14.3 | 18 | 0.195
5 | Cc1ncc(OC[C@@]2(c3cccc(F)c3)C[C@H]2C(=O)Nc2ccc(C#N)cn2)c(C)n1 [Example 96, (1R,2S)-N-(5-cyanopyridin-2-yl)-2-{[(2,4-dimethylpyrimidin-5-yl)oxy]methyl}-2-(3-fluorophenyl)cyclopropanecarboxamide] |  |  |  | 12.1 | 5 | 0.032
6 | Cc1ncc(OC[C@@]2(c3cccc(F)c3)C[C@H]2C(=O)Nc2ccc(F)cn2)c(CF)n1 [Example 320, (1R,2S)-2-{[(4-fluoromethyl-2-methylpyrimidin-5-yl)oxy]methyl}-2-(3-fluorophenyl)-N-(5-fluoropyridin-2-yl)cyclopropanecarboxamide] |  |  |  |  | 2.3 | 0.0123
7 | Cc1ncc(OC[C@@]2(c3ccccc3)C[C@H]2C(=O)Nc2ccc3ccncc3c2)c(C)n1 [Example 13] |  | 71 | 1.24 |  |  | 
8 | COc1cccc(C2(COc3cnc(C)nc3C)CC2C(=O)Nc2ccc(Cl)cn2)c1 (centres unmarked) [Example 185] |  |  |  |  | 7 | 0.024
9 | Cc1ncc(OCC2(c3ccc(Cl)cc3)CC2C(=O)Nc2cccnc2)c(C)n1 (centres unmarked) [Example 160] |  | 28 | 0.389 |  |  | 
10 | Cc1ncc(OC[C@@]2(c3ccsc3)C[C@H]2C(=O)Nc2ccc(Cl)cn2)c(C)n1 [Example 269] |  | 23 | 0.264 |  |  | 
11 | Cc1ncc(OC[C@@]2(c3cccc(F)c3)C[C@H]2c2nc3ccc(Cl)cc3c(=O)[nH]2)c(C)n1 [Example 311] |  | 3.1 | 0.023 |  |  | 
12 | Cc1ncc(OC[C@@]2(c3ccccc3)C[C@H]2C(=O)Nc2cnc(Cl)c(Br)c2)c(C)n1 [Example 59] |  | 51 | 1.41 |  |  | 
13 | COc1ncc(OC[C@@]2(c3ccccc3)C[C@H]2C(=O)Nc2ccc(C#N)cn2)c(C)n1 [Example 127, (1R,2S)-N-(5-cyanopyridin-2-yl)-2-{[(2-methoxy-4-methylpyrimidin-5-yl)oxy]methyl}-2-phenylcyclopropanecarboxamide] |  | 80 | 1.1 |  |  | 
14 | Cc1ncc(OC[C@@]2(c3cc(F)cc(F)c3)C[C@H]2C(=O)Nc2ccc(F)c(F)c2)c(C)n1 [Example 134, (1R,2S)-N-(3,4-difluorophenyl)-2-(3,5-difluorophenyl)-2-{[(2,4-dimethylpyrimidin-5-yl)oxy]methyl}cyclopropanecarboxamide] |  | 4 | < 0.002 |  |  | 
15 | CCc1nc(C)ncc1OC[C@@]1(c2cccc(F)c2)C[C@H]1C(=O)Nc1ccc(Cl)cn1 [Example 243, (1R,2S)-N-(5-chloropyridin-2-yl)-2-{[(4-ethyl-2-methylpyrimidin-5-yl)oxy]methyl}-2-(3-fluorophenyl)cyclopropanecarboxamide] |  |  |  |  | 3.3 | 0.002
16 | COCc1nc(C)ncc1OC[C@@]1(c2ccc(F)cc2)C[C@H]1C(=O)Nc1ccc(F)cn1 [Example 202, (1R,2S)-2-(4-fluorophenyl)-N-(5-fluoropyridin-2-yl)-2-{[(4-methoxymethyl-2-methylpyrimidin-5-yl)oxy]methyl}cyclopropanecarboxamide] |  |  |  |  | 2 | 0.014
17 | COc1cccc(NC(=O)[C@@H]2C[C@@]2(COc2cnc(C)nc2C)c2ccccc2)n1 [Example 11] |  | 53 | 0.279 |  |  | 
18 | Cc1ncc(OCC2(c3ccc(F)cc3)CC2C(=O)Nc2ccc(Cl)cn2)c(C)n1 (centres unmarked) [Example 102] |  |  |  |  | 23 | 0.05
19 | COc1cccc([C@]2(COc3cnc(C)nc3C)C[C@H]2C(=O)Nc2cc(C)c(F)cn2)c1 [Example 189, (1R,2S)-2-{[(2,4-dimethylpyrimidin-5-yl)oxy]methyl}-N-(5-fluoro-4-methylpyridin-2-yl)-2-(3-methoxyphenyl)cyclopropanecarboxamide] |  | 4.1 | 0.007 |  |  | 
20 | Cc1ncc(OC[C@@]2(c3ccccc3)C[C@H]2C(=O)Nc2cc(Cl)ccn2)c(C)n1 [Example 49] |  |  |  |  | 23 | 0.065
21 | COc1ccccc1C1(COc2cnc(C)nc2C)CC1C(=O)Nc1ccc(F)cn1 (centres unmarked) [Example 125] |  |  |  |  | 84 | 1.05
22 | COCc1nc(C)ncc1OC[C@@]1(c2ccccc2)C[C@H]1C(=O)Nc1ccc(C#N)cn1 [Example 140, (1R,2S)-N-(5-cyanopyridin-2-yl)-2-{[(4-(methoxymethyl)-2-methylpyrimidin-5-yl)oxy]methyl}-2-phenylcyclopropanecarboxamide] |  | 8.9 | 0.044 |  |  | 
23 | Cc1ncc(OC[C@@]2(c3ccccc3)C[C@H]2C(=O)Nc2ccnc(C#N)c2)c(C)n1 [Example 41, (1R,2S)-N-(2-cyanopyridin-4-yl)-2-{[(2,4-dimethylpyrimidin-5-yl)oxy]methyl}-2-phenylcyclopropanecarboxamide] |  | 8 | 0.125 |  |  | 
24 | COc1cc(NC(=O)[C@@H]2C[C@@]2(COc2cnc(C)nc2C)c2ccccc2)cnc1F [Example 327, (1R,2S)-2-{[(2,4-dimethylpyrimidin-5-yl)oxy]methyl}-N-(6-fluoro-5-methoxypyridin-3-yl)-2-phenylcyclopropanecarboxamide] |  | 3 | 0.192 |  |  | 
25 | COc1cc(NC(=O)[C@@H]2C[C@@]2(COc2cnc(C)nc2C)c2ccc(F)c(F)c2)ncc1F [Example 173, (1R,2S)-2-(3,4-difluorophenyl)-2-{[(2,4-dimethylpyrimidin-5-yl)oxy]methyl}-N-(5-fluoro-4-methoxypyridin-2-yl)cyclopropanecarboxamide] |  | 3.3 | 0.0036 |  |  | 
26 | Cc1ncc(OC[C@@]2(c3cccs3)C[C@H]2C(=O)Nc2ccc(Cl)cn2)c(C)n1 [Example 267] |  | 64 | 0.118 |  |  | 
27 | Cc1nc(CO)ncc1OC[C@@]1(c2cccc(F)c2)C[C@H]1C(=O)Nc1ccc(F)cn1 [Example 323, (1R,2S)-2-(3-fluorophenyl)-N-(5-fluoropyridin-2-yl)-2-{[(2-hydroxymethyl-4-methylpyrimidin-5-yl)oxy]methyl}cyclopropanecarboxamide] |  |  |  |  | 2.6 | 0.0326
